US20110160158A1, “METHODS OF TREATMENT OF BIPOLAR DISORDER” (REPLIGEN CORPORATION, priority 2008, published 2011)

How the values were obtained:
[1] = test system: children with mitochondrial disease; conditions: 2 g/m^2 three times daily for up to two years; cited from earlier work
[2] = test system: patients undergoing chemotherapy with 5-fluorouracil; conditions: 6 g four times a day; cited from earlier work
[3] = test system: patients with Bipolar I Disorder, Most Recent Episode Depressed; assay: Same six-week study: Clinical Global Impression for bipolar disorder (CGI-BP-S / CGI-BP-C); type: in vivo, human; conditions: for Average CGI-C-BP (Depression) / Average CGI-C-BP (Overall): 7-point scale, 4 = no change, lower = improved
Text: The CGI-BP scale is a modification of the clinical global impression for use in bipolar disorder as a global assessment of patient severity and change of status (Spearing et al., 1997, Psychiatry Res., 73:159-171). The CGI-BP-S rates the severity of the illness on a 7 point scale. The CGI-BP-C rates the change in the severity of disease compared to baseline. This also uses a 7 point scale, anchored by a score of 4 which correlates to no change since the initiation of treatment. Lower scores correspond to improvement, higher to worsening.
(§1) A six-week, double blind, placebo-controlled, dose-escalation study was performed to assess the safety and efficacy of uridine in bipolar I depression. Eight-four (84) patients of both sexes were enrolled at twelve sites, randomized on a 1:1 basis to receive either placebo or uridine. To decrease the probability of a false negative result, uridine or placebo were given as monotherapy, and no concurrent bipolar medications, including mood stabilizers, atypical antipsychotics, antidepressants, anticonvulsants or other psychotropic medications were allowed during the study. Patients taking such medications were tapered gradually during the 28 days prior to initiation of the trial. Patients were evaluated each week over the 6-week trial period, with an extensive intervention plan for any patient having exacerbation of bipolar or depressive symptoms. After the trial period, patients were eligible to initiate therapy for bipolar disease and a follow-up visit occurred at week ten.
Informed consent was provided by all patients.
Subjects in the uridine treatment group were given either 2 g per day (low dose) or 4 g per day (high dose) of uridine. Subjects in the placebo group were given tablets of identical size and appearance with identical dosing instructions.
A dose of 1 g orally twice daily (2 g/day) was chosen to initiate treatment, with an increase to 2 g orally twice daily (4 g/day) in the absence of clinical improvement. On Day 1, all patients received a single dose of either placebo or uridine (2 g). This loading dose was done in order to compare pharmacokinetics of uridine at study start and end. Beginning on Day 2, patients received either placebo and uridine at a dose of 2 g/day administered as 1 g orally twice daily (2 tablets twice daily) for one week. At the Day 8 visit, the dose was increased to 4 g/day administered as 2 g orally twice daily (4 tablets twice daily) if there had been no serious untoward drug-related adverse events, and if the subject had less than a 25% improvement on the MADRS from baseline (Day 1). Patients that remained on 2 g/day were increased to 4 g/day at a subsequent visit if the improvement from baseline on the MADRS was less than 25%. Likewise, subjects having adverse events at the high dose were decreased to the low dose at the discretion of the investigator. On Day 43, all patients received a single dose of either placebo or uridine administered as 2 g orally twice daily (4 tablets twice daily), regardless of dose regimen. This was the patients' last dose of study drug.
The CGI-BP is a clinical impression scale that has been adapted for bipolar disorder and is comprised of an overall score, a depression score and a mania score. The CGI in this study used the severity of disease (CGI-BP-S) at study day 1 as the anchor point and the change from baseline (CGI-BP-C) in subsequent evaluations. Each assessment was intended to measure the change from the study start. The severity of disease (baseline) was similar between groups (Uridine=4.48; Placebo=4.68, n.s.), which are similar in magnitude to published efficacy trials in bipolar I depression (Brown et al., 2006, J. Clin. Psychiatry, 67:1025-33; Calabrese et al., 1999, J. Clin. Psychiatry, 60:79-88; Thase et al., 2006, J. Clin. Psychiatry, 26:600-609; Tohen et al., 2003, Arch. Gen. Psychiatry, 60:1079-88; Goldberg et al., 2007, Am. J. Psychiatry, 164:1348-55; Nierenberg et al., 2006, Am. J. Psychiatry, 163:210-216). […]

[4] = test system: patients (e.g. hereditary orotic aciduria); conditions: cited from earlier work
[5] = test system: patients with Bipolar I Disorder, Most Recent Episode Depressed; assay: Six-week double blind placebo-controlled dose-escalation study of uridine in bipolar I depression: MADRS; type: in vivo, human; conditions: for True difference in mean MADRS between groups (uridine vs placebo): week 6; for Mean change of MADRS from baseline (treatment response), percent: total group; for Average improvement on MADRS over placebo: weeks 2-6
[6] = in vivo; cited from earlier work
[7] = test system: patients undergoing cancer chemotherapy; conditions: cited from earlier work
[8] = test system: patients with Bipolar I Disorder, Most Recent Episode Depressed; assay: Same six-week study: Hamilton Anxiety Scale (HAM-A); type: in vivo, human
Method: (§2) The YMRS is an 11 item scale designed to measure core manic symptoms (Young et al., Br. J. Psychiatry, 133:429-435). A cumulative score of 15 or greater on the YMRS was considered evidence of a treatment emergent affective switch. The HAM-A scale is a measure of global anxiety, including cognitive and somatic symptoms.
as §1, with “After the trial period, patients were eligible to initiate therapy for bipolar disease and a follow-up visit occurred at week ten.” left out
The effect on anxiety in uridine-treated bipolar I depression subjects in comparison to placebo was evaluated using the mean HAM-A scores for each group.

[9] = test system: patients with Bipolar I Disorder, Most Recent Episode Depressed; type: in vivo, human
Method: as §2, §1
Informed consent was provided by all patients. […]

[10] = Wk 10, follow-up a month after treatment concluded

Compound: CC(=O)OC[C@H]1O[C@@H](n2ccc(=O)[nH]c2=O)[C@H](OC(C)=O)[C@@H]1OC(C)=O [TAU, Triacetyluridine]
- Adverse events [1]: no adverse events were reported
- Adverse effects [2]: no adverse effects

Compound: O=c1ccn([C@@H]2O[C@H](CO)[C@@H](O)[C@H]2O)c(=O)[nH]1 [uridine]
- Change in CGI vs placebo, MERM analysis of the treatment period ([3]; CGI-BP-C overall, p=0.044): significant difference
- Average CGI-C-BP (Depression) ([3]; Wk 1): 3.05
- Average CGI-C-BP (Overall) ([3]; Wk 1): 3.19
- Average CGI-C-BP (Depression) ([3]; Wk 2): 2.72
- Average CGI-C-BP (Overall) ([3]; Wk 2): 2.92
- Average CGI-C-BP (Depression) ([3]; Wk 3): 2.31
- Average CGI-C-BP (Overall) ([3]; Wk 3): 2.45
- Average CGI-C-BP (Depression) ([3]; Wk 4): 2.10
- Average CGI-C-BP (Overall) ([3]; Wk 4): 2.33
- Average CGI-C-BP (Depression) ([3]; Wk 5): 2.14
- Average CGI-C-BP (Overall) ([3]; Wk 5): 2.31
- Average CGI-C-BP (Depression) ([3]; Wk 6): 2.03
- Average CGI-C-BP (Overall) ([3]; Wk 6): 2.21
- Effect of higher dosages in some patients ([4]; dosages higher than 1000 mg/kg/day): mild diarrhea
- Toxic effects of pure uridine, long-term experience ([4]; dosages of up to 1000 mg/kg/day): no known toxic effects
- Plasma uridine levels ([4]; oral, doses greater than 240 mg/kg): 60 to 80 µM
- Side effects noted with high dose oral uridine ([4]; oral, typically at doses greater than 240 mg/kg): diarrhea and abdominal cramps
- MADRS change from baseline, as percentage of the baseline score, Δ (%) ([5]; Baseline (Study Day 1)): 0%
- Average MADRS score ([5]; Baseline (Study Day 1), all patients): 30.28
- Difference in change from baseline of average MADRS vs placebo (Δ) ([5]; Day 43, subjects with <2 episodes of mania or hypomania): −8.2
- Difference in change from baseline of average MADRS vs placebo (Δ) ([5]; Day 43, subjects with <10 episodes of depression): −1.7
- Difference in change from baseline of average MADRS vs placebo (Δ) ([5]; Day 43, subjects with ≧10 episodes of depression, p=0.18): 5.8
- MADRS change from baseline, as percentage of the baseline score, Δ (%) ([5]; Wk 1): −25.8%
- Average MADRS score ([5]; Wk 1, oral 2-4 g/day, all patients): 22.46
- MADRS change from baseline, as percentage of the baseline score, Δ (%) ([5]; Wk 2): −37.9%
- Average MADRS score ([5]; Wk 2, oral 2-4 g/day, all patients): 18.81
- MADRS change from baseline, as percentage of the baseline score, Δ (%) ([5]; Wk 3): −52.5%
- Average MADRS score ([5]; Wk 3, oral 2-4 g/day, all patients): 15.90
- MADRS change from baseline, as percentage of the baseline score, Δ (%) ([5]; Wk 4): −54.0%
- Average MADRS score ([5]; Wk 4, oral 2-4 g/day, all patients): 13.93
- MADRS change from baseline, as percentage of the baseline score, Δ (%) ([5]; Wk 5): −50.6%
- Average MADRS score ([5]; Wk 5, oral 2-4 g/day, all patients): 14.97
- MADRS change from baseline, as percentage of the baseline score, Δ (%) ([5]; Wk 6): −58.1%
- Average MADRS score ([5]; Wk 6 (end of treatment), oral 2-4 g/day, all patients): 12.69
- Average MADRS score [5, 10]: 15.91
- MADRS change from baseline, as percentage of the baseline score, Δ (%) [5, 10]: −47.5%
- Effect size from MERM change in mean MADRS score compared to placebo ([5]; baseline adjusted as a covariate, all patients): 0.43
- Rebound in the MADRS assessment after end of dosing ([5]; final assessment 4 weeks after study drug administration was completed): no rebound
- Difference of the mean MADRS scores in comparison to placebo (primary efficacy outcome) ([5]; mixed effects repeat measures, day 1 to day 43, total scores p=0.011, percent change from baseline p=0.014): statistically significant
- Improvement in MADRS score (Uridine vs Placebo) ([5]; patients with <5 manic episodes, Day 1): −0.64
- Improvement in MADRS score (Uridine vs Placebo) ([5]; patients with <5 manic episodes, Day 8): −3.57
- Improvement in MADRS score (Uridine vs Placebo) ([5]; patients with <5 manic episodes, Day 15): −1.39
- Improvement in MADRS score (Uridine vs Placebo) ([5]; patients with <5 manic episodes, Day 22): −1.20
- Improvement in MADRS score (Uridine vs Placebo) ([5]; patients with <5 manic episodes, Day 29): −1.76
- Improvement in MADRS score (Uridine vs Placebo) ([5]; patients with <5 manic episodes, Day 36): −4.62
- Improvement in MADRS score (Uridine vs Placebo) ([5]; patients with <5 manic episodes, Day 43): −6.56
- Response (MADRS vs placebo) ([5]; patients with a history of fewer than 2 episodes of mania): No positive response
- Improvement in MADRS score (Uridine vs Placebo) ([5]; patients with ≧5 manic episodes, Day 1): 0.37
- Improvement in MADRS score (Uridine vs Placebo) ([5]; patients with ≧5 manic episodes, Day 8): 1.63
- Improvement in MADRS score (Uridine vs Placebo) ([5]; patients with ≧5 manic episodes, Day 15): 4.41
- Improvement in MADRS score (Uridine vs Placebo) ([5]; patients with ≧5 manic episodes, Day 22): 6.33
- Improvement in MADRS score (Uridine vs Placebo) ([5]; patients with ≧5 manic episodes, Day 29): 7.07
- Improvement in MADRS score (Uridine vs Placebo) ([5]; patients with ≧5 manic episodes, Day 36): 3.20
- Improvement in MADRS score (Uridine vs Placebo) ([5]; patients with ≧5 manic episodes, Day 43 (week 6)): 5.88
- Treatment response, MADRS change from baseline ([5]; study end (week 6), subset with 15 or more episodes of depression): 58%
- MADRS improvement from baseline ([5]; study end, subset with <15 historic episodes of depression): 58%
- Difference in mean MADRS scores between treatment and placebo groups ([5]; subset with <15 historic episodes of depression (49 subjects)): no appreciable difference
- Average true difference in mean MADRS (corrected for baseline) vs placebo ([5]; week 3 to week 6, all patients): 3.2 points
- True difference in mean MADRS vs placebo (Δ) ([5]; week 6 (Day 43), subjects with ≧2 episodes of mania or hypomania, p=0.11): 5.7
- True difference in mean MADRS between groups (uridine vs placebo) ([5]; subjects with 15 or more episodes of mania and/or hypomania): 9.46
- True difference in mean MADRS between groups (uridine vs placebo) ([5]; subjects with history of 15 or more episodes of depression): 6.35
- True difference in mean MADRS between groups (uridine vs placebo) ([5]; total score (all subjects)): 3.04
- Mean change of MADRS from baseline ([5]; week 6 end of study, all patients): 17.6 points
- Mean change of MADRS from baseline (treatment response), percent ([5]; week 6 end of study): 58%
- Mean change of MADRS from baseline (treatment response), percent ([5]; week 6 end of study, listed as RG2417): 58.1%
- Average improvement on MADRS over placebo ([5]; all patients in the study, p=0.01): 3.0 points
- Average improvement on MADRS over placebo ([5]; patients with more than 5 episodes of depression (n=50), p<0.001): 5.5 points
- Volume distribution [6]: around 0.634 liters/kg
- Main side effects seen with IV uridine [7]: infusion site phlebitis and transient shivering and fever
- Sustained elevations in plasma uridine ([7]; intravenous, cancer chemotherapy context): exceeding 2,000 μM
- Mean HAM-A score vs placebo, MERM over the treatment period [8]: no difference between groups
- Exacerbation of mean YMRS on treatment ([9]; in vivo): did not exacerbate the mean YMRS
- Change in YMRS from baseline in comparison to placebo, MERM ([9]; while on treatment, p=0.025): significant decrease
